From article PMC3256188, “Novel Nonphosphorylated Peptides with Conserved Sequences Selectively Bind to Grb7 SH2 Domain with Affinity Comparable to Its Phosphorylated Ligand” (PLoS ONE, 2012)
Non-standard residues stand in square brackets, D forms with d. No end group written: not given here. pY = N[C@@H](Cc1ccc(OP(=O)(O)O)cc1)C(=O)O

Columns and labels:
[1] = system: EYFP-tagged Grb7 SH2 domain; assay: Bioluminescence Resonance Energy Transfer (BRET) in HEK293T cells; format: cell-based; details: 36 h after transfection, EYFP-Grb7 SH2 + mRLUC-tagged peptide, coelenterazine 5.9 µM, eighteen group ratios
Text: For the BRET assay, the EYFP fragment was generated by PCR amplification. The ErbB3-mRLUC plasmid was constructed by the Beijing Sino Biological Inc. The SH2 domain of Grb7 was fused to the EYFP fragment, and the nonphosphorylated peptides 10 and 41 were fused to the mRLUC fragment. The Grb7 SH2 domain sequence was inserted at the C-terminus of the EYFP tag.
HEK293T cells at 70%–80% confluency were given fresh DMEM (high glucose) culture medium and transfected with plasmids using the calcium phosphate method. Samples were collected at 36 h after transfection.
In BRET, the Renilla luciferase (mRLUC) is fused to the candidate protein, and the green fluorescent protein mutant (EYFP) is fused to the target protein. Interactions between the two fused proteins bring the luciferase and the green fluorescent protein into close proximity, which promotes resonance energy transfer from mRLUC to EYFP [38]. Then EYFP is […] at 530 nm, and the emission is used to determine the binding between the two interacting proteins. In this study, HEK293T cells were collected at 36 h after transfection, 100 µL of mixed cell suspension was added to the u-bottom 96-well microtiter plates (Corning, USA) before measurement. The measurement of bioluminescence, with rasters of 460/40 nm and 518/20 nm, was performed on Synergy4 Multi-Mode Microplates Readers (BioTek, USA). The BRET reaction was initiated by 5.9 µM coelenterazine (Promega, USA). Data were analyzed by one-factor analysis of variance using SPSS 17.0.

Grb7 SH2 domain = assay: Yeast two-hybrid, Grb7 SH2 domain; format: cell-based; details: yeast strain CG1945, GAL4 BD-SH2 bait, SD/-Trp-His-Leu selection and three independent improved LacZ tests
Text: To see whether the conserved residues were required for association with the Grb7 SH2 domain, the peptide 10 was used as the mutation template to design three mutated peptides: the N-GIPT deletion mutation (10AM), the C-GIP deletion mutation (10BM) and the both N-GIPT and C-GIP deletion mutation (10CM).
The ABL_1 and Grb2 plasmids were gifts from Professor Ruibao Ren (Brandeis University, USA), and the Grb7 (BC006535) and Grb14 cDNA (BC053559) plasmids were from the Proteintech Group. The inserted sequences of the SH2 domains were as follows: Grb7: N-[…]-C; Grb2: N-[…]-C; ABL_1: N-[…]-C; and Grb14: N-[…]-C.
In the mutation assay, the control and mutation sequences were as follows:
The GAL4 BD-SH2 fusion bait plasmids were transformed into the yeast strain CG1945 using the lithium acetate protocol. The transformants were grown on SD/-Trp plates and spread on SD/-Trp-His plates for self-activation estimation. Those transformants without background growth or growth inhibited by 3-amino-1, 2, 4-triazole were selected for the subsequent screening. Approximately 3.01×10^6 clones of the random peptide library (Protocol No. PT303921, Clontech, USA), as AD baits, were effectively transformed into yeast strain CG 1945 containing BD bait plasmids and used to be screened according to the MATCHMAKER Two-Hybrid System protocol (Cat. No. 630489, Clontech, USA). Plasmids of potential positive transformants selected on plates with SD/-Trp-His-Leu medium in the primary screening were isolated and retransformed into the CG1945 cells containing the corresponding SH2 bait plasmids. The improved LacZ assay was then performed. Clones that were positive for all of the reporter assays and confirmed by three independent improved LacZ tests were selected for specific interactions.

[2] = target: T1, GFP-Grb7 SH2 domain and 41-mRLUC-3×Flag complex (Homo sapiens, UniProt Q14451); assay: Competition immunoprecipitation, GFP-Grb7 SH2 domain and 41-mRLUC-3×Flag complex; format: binding
T1 construct: expressed in transfected cells; host or cells: HEK293T
Text: To see whether the nonphosphorylated peptide could effectively compete with phosphorylated ligand for binding to the Grb7 SH2 domain, the phosphorylated ligand pY (1180) (DEEYEpY(1180)MNRRR), which was previously shown to interact with the Grb7 SH2 domain [6], and the nonphosphorylated 41-A ligand ([…]), which contains the first twenty-two amino acid-motif close to the N-terminus of peptide 41, were examine for their abilities to interfere with the GFP-Grb7 SH2 domain and 41-mRLUC-3×Flag complex using immunoprecipitation with anti-GFP antibody.
The phosphorylated ligand pY (1180) (DEEYEpY(1180)MNRRR) from the ErbB3 and the nonphosphorylated peptide 41-A ([…] RV) from nonphosphorylated peptide 41 were synthesized by the China Peptides Co., Ltd. The HPLC purification analysis and MS quality analysis reports were obtained.
HEK293T cells were washed 5 times with ice-cold PBS buffer and scraped off the plates into cell lysis buffer (1% Nonidet P-40, 0.02 M TRIS (pH 7.5), 0.15 M sodium chloride, 0.001 M EDTA, 0.5% sodium deoxycholate, 0.1% SDS and 0.001 M PMSF). Lysates were incubated on ice for 5 minutes, vortexed 2 times for 30 seconds each and centrifuged at 12,000 rpm for 15 minutes at 4°C. After centrifuging twice, the supernatant was incubated with anti-Flag antibody (1∶100, M20008M, Abmart, China) for 6–8 h at 4°C. Protein G agarose (40 µL) was added into 1 mL of the above mixture and coupled to the anti-Flag antibody for 3 h at 4°C. The immunoprecipitates were washed 2–3 times with PBS buffer (PH 7.4), and the sediments were diluted with 5×SDS electrophoresis buffer and heated at 97°C for 10 minutes. The proteins were separated by SDS-PAGE and transferred to PVDF membranes (IPVH00010, Millipore, USA). The membranes were incubated with anti-GFP antibody (1∶2000, P30010, Abmart, China) and goat anti-rabbit secondary antibody (1∶4000, M21002, Abmart, China) to identify target proteins. For the competition analyses, the immunoprecipitation complexes were mixed with anti-Flag antibody and different concentrations of the synthesized phosphorylated ligands or the nonphosphorylated ligands. The proteins were separated by SDS-PAGE, and the SH2 domain of Grb7 protein was analyzed using anti-GFP antibody. Western blot analysis was carried out using the Image J [37], the IC50 values were calculated by regression analyses using SPSS 17.0.

EGFP-Grb7 SH2 = target: T2, EGFP-Grb7 SH2 (human); assay: co-IP; competition: synthetic peptide (0.0072, 0.036, 0.18 mM) added to the immunoprecipitation complexes of Grb7 SH2 domain and 41-mRLUC-3×Flag; Grb7 SH2 blotted with anti-GFP, bands scanned (ImageJ), IC50 by regression; details: one partner purified
T2 construct: SH2 domain of Grb7, inserted at the C terminus of the EGFP tag; also called GFP-Grb7 SH2 domain; Grb7 SH2 domain; source: HEK293T, transfected (calcium phosphate), in lysate; not shown: EGFP, N-terminal, kept
T2 chain: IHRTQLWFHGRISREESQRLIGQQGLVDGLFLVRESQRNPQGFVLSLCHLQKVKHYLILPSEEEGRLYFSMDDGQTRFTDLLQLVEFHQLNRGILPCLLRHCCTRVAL

## ErbB3: mRLUC-tagged ErbB3, expressed from ErbB3-mRLUC plasmid
[1]
  BRET luminescence ratio of 530/480 nm: strongest luminescence

## N-AGVESL YTPTTPTLLLTRPLPGIPRGLRGW-C [10AM, N-GIPT deletion mutation of peptide 10]
Grb7 SH2 domain
  recognition by / interaction with the Grb7 SH2 domain: None of the three mutations were recognized by the Grb7 SH2 domain

## N-AGVESLGIPNYTPTTPTLLLTRPLP RGLRGW-C (AGVESLGIPNYTPTTPTLLLTRPLPRGLRGW; left off: Gal4 activation domain (inferred: two-hybrid prey), end not stated, kept) [10BM, C-GIP deletion mutation of peptide 10]
Grb7 SH2 domain
  recognition by / interaction with the Grb7 SH2 domain: None of the three mutations were recognized by the Grb7 SH2 domain

## N-AGVESLYTPTTPTLLLTRPLPRGLRGW-C [peptide 10CM, both N-GIPT and C-GIP deletion mutation of peptide 10]
Grb7 SH2 domain
  recognition by / interaction with the Grb7 SH2 domain: None of the three mutations were recognized by the Grb7 SH2 domain
[1]
  BRET luminescence ratio of 530/480 nm: non-interacting

## N-GMWEGLEGGGVAGVESLGIPNYTPTTPTLLLTRPLPGIPRGLRGWSLLRCCRLLCRNSYITAAPKHHHPLQTSPRGSPGLQEFDIKLIDTVDLEGGPGTQFAL-C [peptide 10, nonphosphorylated peptide identified from random peptide library; mutation template]
[1]
  BRET luminescence ratio of 530/480 nm: significantly stronger
[1]; listed as Peptide 10
  BRET luminescence ratio of 530/480 nm: slightly stronger BRET signals compared to peptide 41

## VAVGIPTQPTTSSEPSPPSNPPWDPGRV [peptide 41-A, synthesized nonphosphorylated ligand containing the first twenty-two amino acid-motif of peptide 41]
[2]; 0.0072 mM
  interference with binding of the Grb7 SH2 domain to peptide 41: did not significantly interfere
[2]; 0.036 mM
  interference with binding of the Grb7 SH2 domain to peptide 41: did not significantly interfere
[2]; 0.18 mM
  interference with binding of the Grb7 SH2 domain to peptide 41: nearly abolished
[2]; Figure 3A, overall, concentration not given
  disruptive effect on the Grb7 SH2 domain/peptide 41 interaction: even stronger than that of the pY (1180) ligand
[2]; in vitro competition, in words
  binding affinity to the Grb7 SH2 domain, comparison of 41-A and pY (1180): at least comparable binding affinities to the Grb7 SH2 domain

B1: phosphorylated ligand pY (1180) from ErbB3 (peptide)
peptide: DEEYE[pY]MNRRR
notes: ErbB3 stretch around Y1180; source: synthetic peptide (China Peptides Co., Ltd.)
EGFP-Grb7 SH2
  IC50: 31.8 µM

B2: nonphosphorylated 41-A ligand (peptide)
peptide: VAVGIPTQPTTSSEPSPPSNPPWDPGRV
notes: stretch of peptide 41 with its first 22-residue motif; also called peptide 41-A; source: synthetic peptide (China Peptides Co., Ltd.)
EGFP-Grb7 SH2
  IC50: 18.8 µM
